The test system of test [1] is A549/OPNluc cells. Nature of the test: WST assay for cell growth / cell viability. The note with it: Homo sapiens, A549, A549/OPNluc cells, 48±4 hours, WST-1; read-out: IC50 (concentration for 50% inhibition of cell growth). The test is classed as cell-based, human. From the text:
(§1) A reporter vector pOPN1-luc obtained by the insertion of a human OPN promoter sequence (−765 to 23) into the multiple cloning site of pGL-3 basic vector (Promega) expresses luciferase when transfected into animal cells. The pOPN1-luc was transfected into a human non-small cell lung cancer-derived cell line A549 together with pPUR (Clontech) that expresses a puromycin resistance gene (puromycin-N-acetyl-transferase gene), and then cells expressing luciferase which could grow a puromycin-supplemented medium were selected. The selected cells were named “A549/OPNluc cells” and used for observation of luciferase expression inhibitory effect under control of OPN promoter, as described below.
(§2) A test compound was added to a culture containing A549/OPNluc cells to observe its influence on the amount of luciferase expressed in the cells. Here, it can be considered that when the test compound has a cell cytotoxity or cell growth inhibitory effect, the total expression level of luciferase is reduced due to a reduction in the number of living cells that depends on the concentration of the test compound, and therefore the luciferase expression inhibitory effect of the test compound under control of OPN promoter cannot be properly evaluated. For this reason, WST assay for quantification of cell proliferation ability or cell viability by colorimetric measurement was firstly performed to determine IC50 (concentration for 50% inhibition of cell growth) of the test compound for cell growth. Then, luciferase activity measurement was performed to determine EC50 (concentration for 50% inhibition of luciferase expression) of the test compound for luciferase expression under control of OPN promoter.
A549/OPNluc cells were suspended in DMEM medium containing 10% fetal calf serum (FCS) and 1% penicillin/streptomycin (P/S) at 3×10^4 cells/mL to obtain a cell suspension, and then the cell suspension was dispensed into each well of a 96-well plate in an amount of 100 μL. In order to perform the assay in triplicate, wells were prepared for a control group, and 3 wells were prepared for each test compound-treated group at each concentration. After the dispensation, the 96-well plate was incubated in a CO2 incubator (at 37° C. and 5% CO2) for 24±4 hours.
The present compound was dissolved in dimethylsulfoxide (DMSO) to obtain a 50 mmol/L solution, and the compound solution was stored at −80° C. The compound solution was diluted with DMSO in 2-fold dilution series (usually, in the range of 0.31 mmol/L to 20 mmol/L) to prepare test compound solutions whose concentration varied by two fold for WST assay.
Each solution of only DMSO (control) and the diluted test compound (sample) was dispensed into each well containing the cell suspension in an amount of 0.5 μL (200-fold dilution). The solution in each well was mixed with a vortex mixer, and then the 96-well plate was incubated in a CO2 incubator (at 37° C. and 5% CO2) for 48±4 hours. Then, Premix WST-1 Reagent (TAKARA BIO INC.) was added in an amount of 10 μL to each well. The solution in each well was mixed with a vortex mixer, and then the 96-well plate was incubated at 37° C. and 5% CO2. After 60 minutes or 120 minutes, the absorbance values (450 nm) were measured with a microplate reader (Bio-Rad; Benchmark or Thermo Scientific; Varioskan Flash).
The absorbance values of the control wells and the sample wells at each concentration were input into an Excel file to determine the percentages of absorbance values of the sample wells at each concentration with to the average absorbance value of the control wells. From the determined values, a fitted curve was determined by the method of least squares to calculate IC50.

Test [2] has as its system human OPN promoter (pOPN1-luc) in A549/OPNluc cells. The experiment in a line: Luciferase assay: luciferase expression under control of OPN promoter. Type of test: cell-based. The note with it: Homo sapiens.
Excerpt: as §1, §2
The same steps as in the above-mentioned WST assay were performed in which each solution of only DMSO (control) or the diluted test compound (sample) was added in an amount of 0.5 μL to each well containing the cell suspension to achieve 200-fold dilution, and the solution in each well was mixed with a vortex mixer, and the 96-well plate was incubated in a CO2 incubator (at 37° C. and 5% CO2) for 48±4 hours.
Luciferase Assay Substrate (hereinafter referred to as “LAS”) supplied in Luciferase Assay Systems (Promega: Cat #E1500) was dissolved in Luciferase Assay Buffer (LAB) to prepare a luciferase reagent. 5×Cell Culture Lysis Reagent (hereinafter referred to as “CCLR”) was diluted by 5 times with water to prepare 1×CCLR.
After the incubation for 48±4 hours, the medium in each well was completely removed, and 1×CCLR was dispensed into each well in an amount of 50 μL. The 96-well plate was allowed to stand at room temperature for 30 minutes, and then 1×CCLR in each well was used as an assay sample. The luciferase reagent (100 μL) was placed in a tube for chemiluminescence measurement, and the assay sample (20 μL) was added to the tube and mixed with the luciferase reagent to measure chemiluminescence (Relative Luminescence Intensity: RLU) using TB 20/20 (Promega) or GloMax 20/20 (Promega).
The RLU values of the control wells and the sample wells at each concentration were input into an Excel file, and the percentages of RLU values of the sample wells at each concentration to the average RLU value of the control wells were determined. From these values, a fitted curve was determined by the method of least squares to calculate EC50. Also, the percentages of RLU values of the sample wells at each concentration to the average RLU value of the control wells were divided by the percentages of absorbance values of the compounds in WST assay at the same concentrations as those of this assay (to the control), and a fitted curve was determined from the calculated values by the method of least squares to calculate corrected EC50.

Setting [3] is: A549, A549/OPNluc cells, 48±4 hours, read-out: EC50 (concentration for 50% inhibition of luciferase expression).
[4] abbreviates: A549, EC50 corrected for decrease in viable cells (RLU % divided by WST %), read-out: corrected EC50.

Like-named read-outs stand apart in the source and are kept apart here. Bounds are passed on as bounds.

In patent US11040937B2, “Amide derivative” (TOHOKU UNIVERSITY, priority 2014, dated 2021) one finds IC50 and EC50 data, which are given here for 13 compounds.

In the case of `O=C(CCNC(=O)c1cccs1)Nc1cccc(Oc2ccc(Cl)cc2)c1` [Compound 35, N-(3-(3-(4-Chlorophenoxy)phenylamino)-3-oxopropyl)thiophene-2-carboxamide], the IC50 in test [1] worked out at 74.6 µM. Further, the EC50 in test [2] (setting [3]) is 23.8 µM; in test [2] (setting [4]), 41.4 µM.
On the same counts, the results for `O=C(NCCc1c[nH]c2c(Oc3ccc(O)cc3)cccc12)c1ccc(O)cc1` [Compound 2, 4-Hydroxy-N-(2-(7-(4-hydroxyphenoxy)-1H-indol-3-yl)ethyl)benzamide] are 51 µM, 26.8 µM and 60.3 µM.
For the compound `CC(=O)Nc1ccc(C(=O)NCCC(=O)c2cccc(Oc3ccc(Cl)cc3)c2N)cc1` [Compound 20, N-(3-(2-amino-3-(4-chlorophenoxy)phenyl)-3-oxopropyl)-4-acetylaminobenzamide], the IC50 in test [1] was over 100 µM. For the same compound, the EC50 was 16.3 µM in test [2] (setting [3]) and 18 µM in test [2] (setting [4]).
On the same counts, the results for `Nc1c(Oc2ccc(O)cc2)cccc1C(=O)CCNC(=O)c1ccc(F)cc1` [Compound 9, N-(3-(2-Amino-3-(4-hydroxyphenoxy)phenyl)-3-oxopropyl)-4-fluorobenzamide] are 93.7 µM, 41.5 µM and 65.6 µM.
On the same counts, the results for `Nc1c(Oc2ccc(Cl)cc2)cccc1C(=O)CCNC(=O)c1ccc(O)cc1` [Compound 17, N-(3-(2-Amino-3-(4-chlorophenoxy)phenyl)-3-oxopropyl)-4-hydroxybenzamide] are 47.7 µM, 3.7 µM and 4.2 µM.
On the same counts, the results for `COc1ccc(Oc2cccc(C(=O)CCNC(=O)c3ccc(O)cc3)c2N)cc1OC` [Compound 16, N-(3-(2-Amino-3-(3,4-dimethoxyphenoxy)phenyl)-3-oxopropyl)-4-hydroxybenzamide] are 34.9 µM, 9.8 µM and 12.5 µM.
Regarding `O=C(CCNC(=O)c1ccsc1)Nc1cccc(Oc2ccc(Cl)cc2)c1` [Compound 36, N-(3-(3-(4-Chlorophenoxy)phenylamino)-3-oxopropyl)thiophene-3-carboxamide], the IC50 in test [1] is 43.3 µM. In addition, the EC50 in test [2] (setting [3]) was determined as 22 µM; in test [2] (setting [4]) it was 31.2 µM.
On the same counts, the results for `O=C(NCCC(=O)c1cccc(O)c1O)c1ccc(Oc2ccc(O)cc2)cc1` [Compound 3, N-(3-(2,3-Dihydroxyphenyl)-3-oxopropyl)-4-(4-hydroxyphenoxy)benzamide] are 32.5 µM, 32.2 µM and 103 µM.
For `Nc1c(Oc2ccc(O)cc2)cccc1C(=O)CCNC(=O)C1CCCCC1` [Compound 10, N-(3-(2-Amino-3-(4-hydroxyphenoxy)phenyl)-3-oxopropyl)-cyclohexanecarboxamide], the IC50 in test [1] was found to be 52.8 µM. For the same compound, the EC50 came out at 31.5 µM in test [2] (setting [3]) and 41.7 µM in test [2] (setting [4]).
On the same counts, the results for `O=C(Nc1cccc(Oc2ccc(Cl)cc2)c1)C1CCN(C(=O)c2ccc(O)cc2)C1` (stereo not shown) [Compound 32, N-(3-(4-chlorophenoxy)phenyl)-1-(4-hydroxyphenylcarbonyl)pyrrolidine-3-carboxamide] are 24.7 µM, 8 µM and 9.3 µM.
For the compound `Nc1c(Oc2ccc(O)cc2)cccc1C(=O)CCNC(=O)C1CCOCC1` [Compound 11, N-(3-(2-Amino-3-(4-hydroxyphenoxy)phenyl)-3-oxopropyl)-(tetrahydro-2H-pyran-4-yl)-carboxamide], the IC50 in test [1] was found to be 200 µM. Further, the EC50 in test [2] (setting [3]) was found to be 166 µM.
For `O=C(Nc1cccc(Oc2ccc(Cl)cc2)c1)C1CCCN1C(=O)c1ccc(O)cc1` (stereo not shown) [Compound 34, N-(3-(4-Chlorophenoxy)phenyl)-1-(4-hydroxyphenylcarbonyl)pyrrolidine-2-carboxamide], the IC50 in test [1] was determined as 55.1 µM. The figures for the EC50 in test [2] (setting [3]) and in test [2] (setting [4]) were 24.9 µM and 32.9 µM, respectively.
Turning to `O=C1NCCc2c1[nH]c1c(Oc3ccc(O)cc3)cccc21` [Compound 18, 8-(4-Hydroxyphenoxy)-1,2,3,4-tetrahydro-β-carboline-1-one], the IC50 in test [1] was determined as 49.4 µM. Also, in test [2] (setting [3]), the EC50 is over 50 µM.
